Data from US8013156B2 (Exelixis, Inc., priority 2003, dated 2011).

target: Tie-2 (Homo sapiens, UniProt Q02763); test: Tie-2 tyrosine kinase activity assay (luciferase/luciferin ATP consumption with pEY substrate, or 33P-ATP incorporation); type: biochemical; settings: human enzyme Tie-2
Experimental: One measure of inhibition is Ki. […] The Ki for a compound is determined from the IC50 based on three assumptions. First, only one compound molecule binds to the enzyme and there is no cooperativity. […] Third, the enzymatic rate of the enzyme-inhibitor complex is zero. The rate data (i.e. compound concentration) are fitted to the equation:
[formula] where V is the observed rate, Vmax, is the rate of the free enzyme, I0 is the inhibitor concentration, E0 is the enzyme concentration, and Kd is the dissociation constant of the enzyme-inhibitor complex.
Tyrosine kinase activity is determined by 1) measurement of kinase-dependent ATP consumption by in the presence of a generic substrate such as […], tyrosine (pEY), by luciferase/luciferin-mediated chemiluminescence or; 2) incorporation of radioactive phosphate derived from ^33P-ATP into a generic substrate which has been adsorbed onto the well surface of polystyrene microtiter plates. Phosphorylated substrate products are quantified by scintillation spectrometry.
Inhibition is indicated as IC50 with following key: A=IC50 less than 50 nM, B=IC50 greater than 50 nM, but less than or equal to 1000 nM, C=IC50 greater than 1000 nM, but less than 10,000 nM, D=IC50 10,000 nM or greater, and “-”=no data available. The abbreviation for human enzyme, Tie-2, is defined as tyrosine kinase with immunoglobulin and EGF repeats.

Chain of Tie-2 (Q02763 23-1124): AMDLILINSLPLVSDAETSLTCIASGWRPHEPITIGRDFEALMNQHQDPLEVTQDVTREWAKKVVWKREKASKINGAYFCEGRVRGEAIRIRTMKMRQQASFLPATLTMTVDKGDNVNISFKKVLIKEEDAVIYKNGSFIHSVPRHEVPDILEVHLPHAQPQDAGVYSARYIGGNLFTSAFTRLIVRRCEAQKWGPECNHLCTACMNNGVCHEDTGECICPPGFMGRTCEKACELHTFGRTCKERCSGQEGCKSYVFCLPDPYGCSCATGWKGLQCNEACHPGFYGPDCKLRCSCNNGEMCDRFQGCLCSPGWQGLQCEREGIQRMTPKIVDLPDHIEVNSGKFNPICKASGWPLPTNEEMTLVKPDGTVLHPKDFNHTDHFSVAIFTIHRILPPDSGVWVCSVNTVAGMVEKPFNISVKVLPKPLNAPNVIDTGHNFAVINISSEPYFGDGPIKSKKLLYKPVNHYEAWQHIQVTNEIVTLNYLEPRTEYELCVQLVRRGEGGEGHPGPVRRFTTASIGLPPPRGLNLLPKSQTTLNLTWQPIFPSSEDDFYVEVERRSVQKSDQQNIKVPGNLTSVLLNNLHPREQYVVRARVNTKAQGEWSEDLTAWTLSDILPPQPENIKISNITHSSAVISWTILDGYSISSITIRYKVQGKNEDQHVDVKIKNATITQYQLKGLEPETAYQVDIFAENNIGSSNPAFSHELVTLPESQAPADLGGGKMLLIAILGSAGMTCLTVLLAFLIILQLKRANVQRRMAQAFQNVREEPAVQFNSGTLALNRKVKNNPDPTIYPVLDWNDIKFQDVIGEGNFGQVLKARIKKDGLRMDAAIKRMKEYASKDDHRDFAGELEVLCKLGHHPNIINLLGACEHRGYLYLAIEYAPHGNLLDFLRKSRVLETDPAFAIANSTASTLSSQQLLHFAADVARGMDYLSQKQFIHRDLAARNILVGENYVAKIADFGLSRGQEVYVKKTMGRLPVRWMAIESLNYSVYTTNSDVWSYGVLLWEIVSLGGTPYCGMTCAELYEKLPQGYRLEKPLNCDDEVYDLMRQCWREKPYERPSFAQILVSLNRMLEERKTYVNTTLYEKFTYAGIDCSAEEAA

First: O=C(Nc1cc(C(F)(F)F)cc(C(F)(F)F)c1)N1CCN(c2nsnc2OCc2ccncc2)CC1 [Example 2]
Second: O=C(Nc1cc(C(F)(F)F)cc(C(F)(F)F)c1)N1CCCN(c2nsnc2OCc2ccncc2)CC1 [Example 23]
The IC50 of the first is lower: < 50 nM for the first, 50 to 1000 nM for the second. The first is the more potent here.

First: O=C(Nc1cccc(Br)c1)N1CCN(c2nsnc2OCc2ccncc2)CC1 [Example 5]
Second: CCc1cccc(NC(=O)N2CCN(c3nsnc3OCc3ccncc3)CC2)c1 [Example 7]
The IC50 of the first is higher: 1000 to 10000 nM for the first, 50 to 1000 nM for the second. The second is the more potent here.

Cc1cc(C)cc(NC(=O)N2CCN(c3nsnc3OCc3ccncc3)CC2)c1 [Example 8] and O=C(Nc1cccc(C(F)(F)F)c1)N1CCN(c2nsnc2OCc2ccncc2)CC1 [Example 9] fall in the same range of IC50: 50 to 1000 nM for the first, 50 to 1000 nM for the second.

Cc1cc(COc2nsnc2N2CCN(C(=O)Nc3cc(C(F)(F)F)cc(C(F)(F)F)c3)CC2)c2ccccc2n1 [Example 10] and CN(C)c1cccc(COc2nsnc2N2CCN(C(=O)Nc3cc(C(F)(F)F)cc(C(F)(F)F)c3)CC2)c1 [Example 11, N-[3,5-bis(trifluoromethyl)phenyl]-4-[4-({[3-(dimethylamino)phenyl]methyl}oxy)-1,2,5-thiadiazol-3-yl]piperazine-1-carboxamide] cannot be ordered by IC50: ≥ 10000 nM for the first, ≥ 10000 nM for the second.

Compared with O=C(Nc1cc(C(F)(F)F)cc(C(F)(F)F)c1)N1CCN(c2nsnc2Oc2ccc3[nH]ccc3c2)CC1 [Example 12], COc1ccc(COc2nsnc2N2CCN(C(=O)Nc3cc(C(F)(F)F)cc(C(F)(F)F)c3)CC2)cc1 [Example 17] is higher in IC50: 50 to 1000 nM for the first, ≥ 10000 nM for the second.

O=C(Nc1cc(C(F)(F)F)cc(C(F)(F)F)c1)N1CCN(c2nsnc2OCc2ccsc2)CC1 [Example 13] and O=C(Nc1cc(C(F)(F)F)cc(C(F)(F)F)c1)N1CCN(c2nsnc2OCc2ccoc2)CC1 [Example 20] cannot be ordered by IC50: ≥ 10000 nM for the first, ≥ 10000 nM for the second.

O=C(Nc1cc(C(F)(F)F)cc(C(F)(F)F)c1)N1CCN(c2nsnc2OCCN2CCOCC2)CC1 [Example 14] and O=C(Nc1cc(C(F)(F)F)cc(C(F)(F)F)c1)N1CCN(c2nsnc2OCCCc2cccnc2)CC1 [Example 29, N-[3,5-bis(trifluoromethyl)phenyl]-4-{4-[(3-pyridin-3-ylpropyl)oxy]-1,2,5-thiadiazol-3-yl}piperazine-1-carboxamide] cannot be ordered by IC50: ≥ 10000 nM for the first, 1000 to 10000 nM for the second.

CC1CN(c2nsnc2OCc2ccncc2)CCN1C(=O)Nc1cc(C(F)(F)F)cc(C(F)(F)F)c1 (stereo not shown) [Example 22] and O=C(Nc1cc(C(F)(F)F)cc(C(F)(F)F)c1)C1CCN(c2nsnc2OCc2ccncc2)CC1 [Example 36, N-[3,5-bis(trifluoromethyl)phenyl]-1-{4-[(pyridin-4-ylmethyl)oxy]-1,2,5-thiadiazol-3-yl}piperidine-4-carboxamide] fall in the same range of IC50: 50 to 1000 nM for the first, 50 to 1000 nM for the second.

First: CC(C)[C@H]1CC[C@H](C)C[C@@H]1OCC(=O)N1CCN(c2nsnc2OCc2ccncc2)CC1 [Example 24]
Second: O=C(Nc1cccc(C(F)(F)F)c1)C1CCN(c2nsnc2OCc2ccncc2)CC1 [Example 37, 1-{4-[(pyridin-4-ylmethyl)oxy]-1,2,5-thiadiazol-3-yl}-N-[3-(trifluoromethyl)phenyl]piperidine-4-carboxamide]
The IC50 of the first is higher: 1000 to 10000 nM for the first, 50 to 1000 nM for the second.

First: O=C(NCC1CCN(c2nsnc2OCc2ccncc2)CC1)Nc1cc(C(F)(F)F)cc(C(F)(F)F)c1 [Example 28]
Second: O=C(Nc1cc(C(F)(F)F)cc(C(F)(F)F)c1)N1CCN(c2nccnc2OCc2ccncc2)CC1 [Example 38, N-[3,5-bis(trifluoromethyl)phenyl]-4-{3-[(pyridin-4-ylmethyl)oxy]pyrazin-2-yl}piperazine-1-carboxamide]
The IC50 of the first is higher: 50 to 1000 nM for the first, < 50 nM for the second. The second is the more potent here.

First: O=C(O)c1ccc(COc2nsnc2N2CCN(C(=O)Nc3cc(C(F)(F)F)cc(C(F)(F)F)c3)CC2)cc1 [Example 32, 4-[({4-[4-({[3,5-bis(trifluoromethyl)phenyl]amino}carbonyl)piperazin-1-yl]-1,2,5-thiadiazol-3-yl}oxy)methyl]benzoic acid]
Second: O=C(Nc1cccc(C(F)(F)F)c1)N1CCN(c2nccnc2OCc2ccncc2)CC1 [Example 39, 4-{3-[(pyridin-4-ylmethyl)oxy]pyrazin-2-yl}-N-[3-(trifluoromethyl)phenyl]piperazine-1-carboxamide]
The IC50 of the first is higher: 1000 to 10000 nM for the first, < 50 nM for the second.
